Test results as given in PubChem BioAssay (NCI).
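In this assay, cells in 96-well plates receive the compound at five concentrations for 48 hours. Endpoints are linearly interpolated between the surrounding concentrations. At the GI50, growth is halved. At the TGI there is no net growth.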

Assays:
Assay in all cases: NCI tumour cell line growth inhibition, 48 h
[1] = system: DMS 114 small cell lung
[2] = system: XF 498 CNS
[3] = system: LXFL 529 NSCLC
[4] = system: SNB-78 CNS
[5] = system: DLD-1 colon
[6] = system: DMS 273 small cell lung
[7] = system: KM20L2 colon
[8] = system: P388/ADR leukemia
[9] = system: SN12K1 renal
[10] = system: P388 leukemia
[11] = system: HOP-18 NSCLC
[12] = system: RXF-631 renal

SMILES	TGI [1]	TGI [2]	TGI [3]	TGI [4]	TGI [5]	TGI [6]	TGI [7]	TGI [8]	TGI [9]	TGI [10]	TGI [11]	TGI [12]	GI50 [1]	GI50 [3]	GI50 [5]	GI50 [11]	GI50 [6]	GI50 [7]
CC(C)CCC[C@@H](C)[C@H]1CC[C@H]2[C@@H]3CC=C4CC(OCCCCN(O)CCCSC5OC(CO)C(O)C(O)C5O)CC[C@]4(C)[C@H]3CC[C@]12C (stereo not given in full)	45.6 µM	> 100 µM	47.3 µM	> 100 µM	> 100 µM	> 100 µM	> 100 µM	–	–	–	–	–	–	–	–	–	–	–
CCC1OC(=O)C(C)C(OC2CC(C)(O)C(O)C(C)O2)C(C)C(O)C(C)(O)CC(C)C(=O)C(C)C(O)C1C (stereo not given)	> 300 µM	> 300 µM	–	> 189 µM	> 300 µM	> 300 µM	> 300 µM	> 300 µM	> 300 µM	> 300 µM	> 300 µM	–	–	–	–	–	–	–
COc1cc2c(oc(=O)c3c4oc([Si](C)(C)C)cc4cc(OC)c23)c2cccc(O)c12	> 100 µM	> 100 µM	> 100 µM	–	> 100 µM	> 100 µM	> 100 µM	–	–	–	> 100 µM	–	–	–	–	–	–	–
CN(C)CCCNc1ccc2nnn3c4ccc([N+](=O)[O-])cc4c(=O)c1c23	14.1 µM	11.4 µM	15 µM	16 µM	14.4 µM	6.89 µM	9.69 µM	–	–	–	13.6 µM	7.59 µM	–	–	–	–	–	–
Cc1cccc2ns[s+]c12	58.1 µM	–	> 100 µM	> 100 µM	> 100 µM	> 100 µM	> 100 µM	–	–	–	> 100 µM	–	–	–	–	–	–	–
O=C(N/N=C/c1cc(-c2ccccc2Cl)c(-c2ccccc2Cl)o1)c1ccncc1	> 100 µM	> 100 µM	> 100 µM	–	> 100 µM	–	> 100 µM	–	–	–	–	> 100 µM	–	–	–	–	–	–
COc1ccccc1C1C(Cl)C(=O)N1NC(=O)Cc1ccccc1 (stereo not given)	> 100 µM	> 100 µM	> 100 µM	> 100 µM	–	> 100 µM	> 100 µM	–	–	–	> 100 µM	–	–	–	–	–	–	–
COc1nc(NC2OCC(OC(C)=O)C(OC(C)=O)C2OC(C)=O)c(N=C(C)C(C)=O)c(=O)n1C (stereo not given)	> 100 µM	> 100 µM	–	> 100 µM	> 100 µM	> 100 µM	> 100 µM	–	–	–	> 100 µM	> 100 µM	–	–	–	–	–	–
CN1C(=N\S(=O)(=O)c2ccc(Cl)cc2)/C(=N/N=P(c2ccccc2)(c2ccccc2)c2ccccc2)c2ccccc21	–	> 100 µM	> 100 µM	> 100 µM	> 100 µM	> 100 µM	> 100 µM	–	–	–	–	> 100 µM	–	–	–	–	–	–
C[N+](C)(C)CC(=O)N/N=C(\C(=O)Nc1ccc(Cl)cc1)C1C(=O)N(c2ccccc2)N=C1N (stereo not given)	> 100 µM	–	> 100 µM	> 100 µM	> 100 µM	> 100 µM	> 100 µM	–	–	–	–	–	–	–	–	–	–	–
O=C(Cl)c1cc([N+](=O)[O-])cc([N+](=O)[O-])c1	> 100 µM	> 100 µM	> 100 µM	> 100 µM	> 100 µM	> 100 µM	–	–	–	–	–	–	–	–	–	–	–	–
O=C(CCc1nnc2s/c(=C\c3ccc(Cl)cc3Cl)c(=O)n12)Nc1cc(Cl)c(Cl)cc1Cl	> 100 µM	–	> 100 µM	> 100 µM	> 100 µM	> 100 µM	> 100 µM	–	–	–	> 100 µM	> 100 µM	> 100 µM	> 100 µM	> 100 µM	> 100 µM	> 100 µM	> 100 µM
Nc1nc(NC(=O)C2=NS(=O)(=O)c3cc(S(N)(=O)=O)c(Cl)cc3N2)n[nH]1	> 100 µM	> 100 µM	> 100 µM	> 100 µM	> 100 µM	–	> 100 µM	–	–	–	> 100 µM	–	–	–	–	–	–	–
CC(C)(C)C(=O)Cc1cc2c(cc1C(=O)O)S(=O)(=O)NC(C(C)(C)C)=C2	> 100 µM	–	> 100 µM	> 100 µM	> 100 µM	–	–	–	–	–	–	–	–	–	–	–	–	–
